Assay results taken from patent US20140235848A1, “METHOD FOR MAKING A PRECURSOR OF L-FUCOSE FROM D-GLUCOSE” (Glycom A/S, priority 2011, published 2014).

Experiment: Partition studies between organic solvent and water
Format: physicochemical
Conditions: for affinity to organic solvents as compared to aqueous media / solubility in organic versus aqueous solvents: conclusion in words from the partition studies
Description: 1,2-O-Cyclohexylidene-6-deoxy-β-L-talofuranose (197 mg) was partitioned between water (10 mL) and methylene chloride (10 mL), layers separated and the residual amount of solutions in the separatory funnel were partitioned with extra amount of water (5 mL) and methylene chloride (5 mL). The combined organic phases were evaporated and dried in vacuo (50° C., <1 mbar, 1 hour) to give 140 mg of the title compound. The aqueous solution gave 53 mg after lyophilisation and drying in vacuo (50° C., <1 mbar, 2 hrs). Using the same procedure, partition between ethyl acetate and water provided 127 mg of the title compound from ethyl acetate phase and 70 mg from the aqueous phase.
Analogously, 1,2-O-isopropylidene-6-deoxy-β-L-talofuranose (150 mg) was partitioned between methylene chloride (24 mg) and aqueous phase (126 mg). Partition between ethyl acetate and water furnished 7 mg and 143 mg of the title compound, respectively.

| Compound | affinity to organic solvents as compared to aqueous media | solubility in organic versus aqueous solvents | logP (solvent system CH2Cl2-water) | logP (solvent system ethyl acetate-water) |
| --- | --- | --- | --- | --- |
| C[C@H](O)[C@H]1O[C@@H]2OC(C)(C)O[C@@H]2[C@@H]1O [1,2-O-isopropylidene-6-deoxy-β-L-talofuranose] | higher affinity to aqueous medium | highly soluble in aqueous solutions and almost insoluble in organic solvents | 0.72 | 0.79 |
| C[C@H](O)[C@H]1O[C@@H]2OC3(CCCCC3)O[C@@H]2[C@@H]1O [6-deoxy-1,2-O-cyclohexylidene-β-L-talofuranose] | higher affinity to organic solvents as compared to aqueous media | much higher solubility of compound 1G in organic solvents as compared to aqueous solvents |  |  |
